In brackets after ≈: the same amount, converted by molar mass. Activity calls are given as the source filed them. The calls are words filed in the database; no cut-off is given here.
Columns and labels:
Staphylococcus aureus [1] = assay: Antimicrobial activity against methicillin-resistant Staphylococcus aureus ATCC 33591 after 24 hrs by broth microdilution method; assay type: functional
Pseudomonas aeruginosa = assay: Antimicrobial activity against Pseudomonas aeruginosa ATCC 27853 at 256 ug/ml after 24 hrs by broth microdilution assay; assay type: functional, organism-based; settings: dose 256.0 µg/ml
[2] = Selectivity ratio of IC50 for human MCF-10A cells to MIC for methicillin-resistant Staphylococcus aureus ATCC 33591; assay type: toxicity
MCF-10A = assay: Cytotoxicity against human MCF-10A cells after 3 days by microplate reader analysis; assay type: cell-based; settings: 72 h
HepG2 = assay: Cytotoxicity against human HepG2 cells after 3 days by microplate reader analysis; assay type: cell-based; settings: HepG2, 72 h
[3] = Selectivity ratio of IC50 for human MCF-10A cells to MIC for vancomyicin-resistant Staphylococcus aureus 510; assay type: toxicity
Staphylococcus aureus [4] = assay: Antimicrobial activity against vancomycin-resistant Staphylococcus aureus 510 after 24 hrs by broth microdilution method; assay type: functional

Oc1ccc([C@@H]2c3c(O)cc(O)cc3[C@H]3[C@H](c4ccc(O)cc4)c4c(O)cc(O)cc4[C@@H]23)cc1 [PALLIDOL]
MIC (Staphylococcus aureus [1]): > 282 µM | Activity (Pseudomonas aeruginosa): inactive

Oc1ccc([C@H]2Oc3ccc(/C=C/c4cc(O)cc(O)c4)cc3[C@@H]2c2cc(O)cc(O)c2)cc1 (relative stereo)
selectivity ratio [2]: 1.4 | MIC (Staphylococcus aureus [1]): 35 µM (≈ 15.9 µg/mL) | IC50 (MCF-10A): 48 µM | IC50 (HepG2): 48 µM | Activity (Pseudomonas aeruginosa): inactive

COc1cc(OC)cc([C@@H]2[C@@H](c3cc(OC)cc(OC)c3)[C@H](c3ccc(O)cc3)O[C@@H]2c2ccc(O)cc2)c1
MIC (Staphylococcus aureus [1]): 121 µM (≈ 64 µg/mL) | IC50 (MCF-10A): > 95 µM | IC50 (HepG2): > 95 µM | Activity (Pseudomonas aeruginosa): inactive

COc1cc(/C=C/c2ccc(OC(c3cc(O)cc(O)c3)C(OC)c3ccc(O)cc3)cc2)cc(OC)c1 (racemic)
selectivity ratio [2]: 3.4 | selectivity ratio [3]: 6.9 | MIC (Staphylococcus aureus [1]): 8 µM (≈ 4.12 µg/mL) | IC50 (MCF-10A): 27 µM | IC50 (HepG2): 23 µM | Activity (Pseudomonas aeruginosa): inactive | MIC (Staphylococcus aureus [4]): 4 µM (≈ 2.06 µg/mL)

COc1cc(OC)cc([C@@H]2[C@@H](c3ccc(O)cc3)c3c(OC)cc(OC)cc3[C@H]2[C@@H](O)c2ccc(O)cc2)c1
MIC (Staphylococcus aureus [1]): 121 µM (≈ 64 µg/mL) | Activity (Pseudomonas aeruginosa): inactive

COc1cc(OC)cc([C@@H]2[C@@H](c3ccc(O)cc3)c3c(OC)cc(OC)cc3[C@H]2[C@H](O)c2ccc(O)cc2)c1
MIC (Staphylococcus aureus [1]): 121 µM (≈ 64 µg/mL) | Activity (Pseudomonas aeruginosa): inactive

COc1cc(/C=C/c2ccc(OC(c3cc(OC)cc(OC)c3)C(O)c3ccc(O)cc3)cc2)cc(OC)c1 (centres undefined)
MIC (Staphylococcus aureus [1]): > 242 µM | Activity (Pseudomonas aeruginosa): inactive

COc1cc(OC)cc([C@@H]2[C@@H](c3ccc(O)cc3)c3c(OC)cc(OC)cc3[C@H]2[C@@H](OC)c2ccc(O)cc2)c1
selectivity ratio [2]: 1.1 | MIC (Staphylococcus aureus [1]): 15 µM (≈ 8.14 µg/mL) | IC50 (MCF-10A): 17 µM | IC50 (HepG2): 15 µM | Activity (Pseudomonas aeruginosa): inactive

COc1cccc2c1C(=O)c1c(O)c3c(c(O)c1C2=O)C[C@@](O)(C(=O)CO)C[C@@H]3O[C@H]1C[C@H](N)[C@H](O)[C@H](C)O1 [DOXORUBICIN]
IC50 (MCF-10A): 0.31 µM | IC50 (HepG2): 1.18 µM

CN[C@H](CC(C)C)C(=O)N[C@H]1C(=O)N[C@@H](CC(N)=O)C(=O)N[C@H]2C(=O)N[C@H]3C(=O)N[C@H](C(=O)N[C@H](C(=O)O)c4cc(O)cc(O)c4-c4cc3ccc4O)[C@H](O)c3ccc(c(Cl)c3)Oc3cc2cc(c3O[C@@H]2O[C@H](CO)[C@@H](O)[C@H](O)[C@H]2O[C@H]2C[C@](C)(N)[C@H](O)[C@H](C)O2)Oc2ccc(cc2Cl)[C@H]1O [VANCOMYCIN]
MIC (Staphylococcus aureus [1]): 0.69 µM (≈ 1 µg/mL) | Activity (Pseudomonas aeruginosa): inactive | MIC (Staphylococcus aureus [4]): 22 µM (≈ 31.9 µg/mL)

COC(c1ccc(O)cc1)[C@@H]1c2cc(O)cc(O)c2[C@H](c2ccc(O)cc2)[C@H]1c1cc(O)cc(O)c1 (some centres undefined)
MIC (Staphylococcus aureus [1]): > 263 µM | Activity (Pseudomonas aeruginosa): inactive

COc1cc(OC)cc(C(C(OC)OC)C(c2cc(OC)cc(OC)c2)C(c2ccc(O)cc2)c2ccc(O)cc2)c1 (centres undefined)
selectivity ratio [2]: 1.4 | MIC (Staphylococcus aureus [1]): 14 µM (≈ 8.05 µg/mL) | IC50 (MCF-10A): 19 µM | IC50 (HepG2): 19 µM | Activity (Pseudomonas aeruginosa): inactive

COc1cc(OC)cc([C@@H]2[C@@H](c3ccc(O)cc3)c3c(O)cc(O)cc3[C@H]2[C@@H](OC)c2ccc(O)cc2)c1
MIC (Staphylococcus aureus [1]): > 249 µM | Activity (Pseudomonas aeruginosa): inactive

COc1cc(OC)cc(C(Oc2ccc(/C=C/c3cc(O)cc(O)c3)cc2)C(OC)c2ccc(O)cc2)c1 (centres undefined)
selectivity ratio [2]: 0.4 | MIC (Staphylococcus aureus [1]): 62 µM (≈ 31.9 µg/mL) | IC50 (MCF-10A): 23 µM | IC50 (HepG2): 29 µM | Activity (Pseudomonas aeruginosa): inactive

COc1cc(/C=C/c2ccc(O)cc2)cc(OC)c1 [PTEROSTILBENE]
MIC (Staphylococcus aureus [1]): 31 µM (≈ 7.95 µg/mL) | Activity (Pseudomonas aeruginosa): inactive

COc1cc(/C=C/c2ccc3c(c2)[C@H](c2cc(O)cc(O)c2)[C@@H](c2ccc(O)cc2)O3)cc(OC)c1
selectivity ratio [2]: 32 | selectivity ratio [3]: 32 | MIC (Staphylococcus aureus [1]): 22 µM (≈ 10.6 µg/mL) | IC50 (MCF-10A): 66 µM | IC50 (HepG2): 27 µM | Activity (Pseudomonas aeruginosa): inactive | MIC (Staphylococcus aureus [4]): 2 µM (≈ 0.965 µg/mL)

COc1cc(OC)c2c(c1)[C@@H]([C@@H](OC)c1ccc(O)cc1)[C@H](c1cc(O)cc(O)c1)[C@H]2c1ccc(O)cc1
MIC (Staphylococcus aureus [1]): > 249 µM | Activity (Pseudomonas aeruginosa): inactive

COc1cc(OC)cc([C@@H]2[C@@H](c3ccc(O)cc3)c3c(O)cc(O)cc3[C@H]2C(O)c2ccc(O)cc2)c1 (some centres undefined)
MIC (Staphylococcus aureus [1]): > 256 µM | Activity (Pseudomonas aeruginosa): inactive

COc1cc(OC)cc([C@@H](C(OC)OC)[C@@H](c2cc(O)cc(O)c2)C(c2ccc(O)cc2)c2ccc(O)cc2)c1
MIC (Staphylococcus aureus [1]): > 234 µM | Activity (Pseudomonas aeruginosa): inactive

Oc1ccc(/C=C/c2cc(O)cc(O)c2)cc1 [RESVERATROL]
MIC (Staphylococcus aureus [1]): > 561 µM | Activity (Pseudomonas aeruginosa): inactive

COc1cc(OC)cc([C@H]2c3cc(/C=C/c4cc(O)cc(O)c4)ccc3O[C@@H]2c2ccc(O)cc2)c1 (relative stereo)
selectivity ratio [2]: 7.2 | selectivity ratio [3]: 7.2 | MIC (Staphylococcus aureus [1]): 4 µM (≈ 1.93 µg/mL) | IC50 (MCF-10A): 29 µM | IC50 (HepG2): 27 µM | Activity (Pseudomonas aeruginosa): inactive | MIC (Staphylococcus aureus [4]): 4 µM (≈ 1.93 µg/mL)

COc1cc(OC)c2c(c1)[C@H]1[C@H](c3ccc(O)cc3)c3c(OC)cc(OC)cc3[C@H]1[C@@H]2c1ccc(O)cc1
selectivity ratio [2]: 0.7 | MIC (Staphylococcus aureus [1]): 31 µM (≈ 15.8 µg/mL) | IC50 (MCF-10A): 24 µM | IC50 (HepG2): 22 µM | Activity (Pseudomonas aeruginosa): inactive

COc1cc(/C=C/c2ccc3c(c2)[C@H](c2cc(OC)cc(OC)c2)[C@@H](c2ccc(O)cc2)O3)cc(OC)c1
selectivity ratio [2]: < 0.1 | MIC (Staphylococcus aureus [1]): > 251 µM | IC50 (MCF-10A): 25 µM | IC50 (HepG2): 29 µM | Activity (Pseudomonas aeruginosa): inactive

COc1cc(OC)cc([C@@H]2[C@@H](c3ccc(O)cc3)c3c(O)cc(O)cc3[C@H]2[C@H](OC)c2ccc(O)cc2)c1
MIC (Staphylococcus aureus [1]): > 249 µM | Activity (Pseudomonas aeruginosa): inactive
